One block for each molecule: values may come before it.
How the values were obtained:
[1] = Solubility of reaction components and additives in MS; format: physicochemical
[2] = Solubility of catalysts in MS and co-solvents

- Solubility in MS, T (90° C.) ([1]; 0.8 wt %, 0.1 g in 10 ml MS): Dissolved
- Stable at T (room) for: ([1]; solution in MS, 0.8 wt %, result in words): Crystalized
Structure (SMILES): O=C(O)CCCCCCCCCCCCC(=O)O [1,12-Dodecanedicarboxylic acid]

- Solubility in MS, T (90° C.) ([1]; 4.1 wt %, 0.5 g in 10 ml MS): Dissolved
- Solubility in MS, T (100° C.) ([1]; 17.5 wt %, 2.5 g in 10 ml MS): Dissolved
- Stable at T (room) for: ([1]; solution in MS, 4.1 wt %): >24 h
- Stable at T (room) for: ([1]; solution in MS, 17.5 wt %): >24 h
Structure (SMILES): COC(=O)c1ccccc1OC(=O)Oc1ccccc1C(=O)OC [BMSC, bismethylsalicylcarbonate]

Structure (SMILES): CC(=O)[O-].[Cs+] [CS-Acetate]
- Solubility of catalyst, T (room) ([2]; 0.79 wt %, 0.1 g, 10.0 ml MS + 1.0 ml MeOH): Dissolved
- Stable at T (room) for: ([2]; 0.79 wt %, 10.0 ml MS + 1.0 ml MeOH): >24 h

Structure (SMILES): O=C(Oc1ccccc1)Oc1ccccc1 [Diphenyl Carbonate]
- Solubility in MS, T (90° C.) ([1]; 4.1 wt %, 0.5 g in 10 ml MS): Dissolved
- Stable at T (room) for: ([1]; solution in MS, 4.1 wt %): >24 h

Structure (SMILES): CC(C)(C)c1ccc(OP(Oc2ccc(C(C)(C)C)cc2C(C)(C)C)Oc2ccc(C(C)(C)C)cc2C(C)(C)C)c(C(C)(C)C)c1 [Irgafos 168]
- Solubility in MS, T (room) ([1]; 0.8 wt %, 0.1 g in 10 ml MS): Dissolved
- Solubility in MS, T (50° C.) ([1]; 4.1 wt %, 0.5 g in 10 ml MS): Dissolved
- Stable at T (room) for: ([1]; solution in MS, 0.8 wt %): 5 h
- Stable at T (room) for: ([1]; solution in MS, 4.1 wt %): <2 h

- Solubility in MS, T (room) ([1]; 0.8 wt %, 0.1 g in 10 ml MS): Dissolved
- Solubility in MS, T (room) ([1]; 4.1 wt %, 0.5 g in 10 ml MS): Dissolved
- Stable at T (room) for: ([1]; solution in MS, 0.8 wt %): >48 h
- Stable at T (room) for: ([1]; solution in MS, 4.1 wt %): >24 h
Structure (SMILES): O[C@@H]1CO[C@H]2[C@@H]1OC[C@@H]2O [Isosorbide, 1,4:3,6-dianhydro-D-sorbitol]

- Solubility in MS, T (room) ([1]; 0.8 wt %, 0.1 g in 10 ml MS): Dissolved
- Solubility in MS, T (90° C.) ([1]; 7.8 wt %, 1 g in 10 ml MS): Dissolved
Structure (SMILES): Cc1cc(O)ccc1O [Methyl hydroquinone]

Structure (SMILES): CC(C)(c1ccccc1)c1ccc(O)cc1 [Para-Cumyl Phenol]
- Stable at T (room) for: [1]: >24 h
- Solubility in MS, T (room) ([1]; 4.1 wt %, 0.5 g in 10 ml MS): Dissolved
- Solubility in MS, T (room) ([1]; 17.5 wt %, 2.5 g in 10 ml MS): Dissolved
- Solubility in MS, T (room) ([1]; 29.7 wt %, 5 g in 10 ml MS): Dissolved

- Stable at T (room) for: ([1]; solution in MS, 0.8 wt %): >48 h
- Stable at T (room) for: ([1]; solution in MS, 7.8 wt %): >24 h
Structure (SMILES): Oc1cccc(O)c1 [Resorcinol]

Structure (SMILES): CC(=O)[O-].CCCC[N+](CCCC)(CCCC)CCCC [Tetra Butyl Ammonium Acetate]
- Stable at T (room) for: ([2]; 2.47 wt %, 10.0 ml MS, no co-solvent): >72 h

Source: patent publication US7671165B2, “Method of forming polycarbonate” (Sabic Innovative Plastics IP B.V., priority 2008, dated 2010)
